The results in this text go back to ChEMBL document CHEMBL5625233, “Exploring positions 6 and 7 of a quinazoline-based scaffold leads to changes in selectivity and potency towards RIPK2/3 kinases” (Eur J Med Chem, 2023).

The target in data set [1] is T1, Receptor-interacting serine/threonine-protein kinase 2 (Homo sapiens, UniProt O43353). Briefly: Inhibition of RIPK2-mediated NF-kappaB signalling in C14-TriLAN-Gly-treated human THP-1 cells upto 10 uM preincubated for 30 mins followed by C14-TriLAN-Gly addition measured after 24 hrs by luminescence based assay. In kind it is cell-based.
T1 sequence (O43353 whole entry, the tested form may be a part): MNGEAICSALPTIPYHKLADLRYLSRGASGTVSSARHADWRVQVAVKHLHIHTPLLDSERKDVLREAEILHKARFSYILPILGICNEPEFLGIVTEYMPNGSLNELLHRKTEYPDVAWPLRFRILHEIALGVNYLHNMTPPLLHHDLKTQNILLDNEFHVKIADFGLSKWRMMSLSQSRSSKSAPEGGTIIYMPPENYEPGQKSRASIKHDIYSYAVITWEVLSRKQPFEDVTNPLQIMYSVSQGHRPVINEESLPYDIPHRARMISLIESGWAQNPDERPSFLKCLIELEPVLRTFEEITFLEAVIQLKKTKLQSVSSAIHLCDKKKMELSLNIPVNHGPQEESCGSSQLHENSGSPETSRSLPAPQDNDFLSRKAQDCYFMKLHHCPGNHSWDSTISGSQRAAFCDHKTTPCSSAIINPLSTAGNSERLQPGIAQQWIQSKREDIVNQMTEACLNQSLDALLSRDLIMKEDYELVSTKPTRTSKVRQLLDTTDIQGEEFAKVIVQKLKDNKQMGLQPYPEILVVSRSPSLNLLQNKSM
The target in data set [2] is T1, Receptor-interacting serine/threonine-protein kinase 2. Briefly: Inhibition of N-terminal polyHis-tagged human RIPK2 (8 to 310 residues) expressed in Sf9 cells using MBP as substrate preincubated for 15 mins followed by ATP addition measured after 90 mins by ADP-Glo assay. For orientation: In ADP-Glo the light output rises with the ADP produced.
Data set [3] has the same target. Put plainly: Inhibition of RIPK2-mediated NF-kappaB signalling in MDP-treated human THP-1 cells upto 10 uM preincubated for 30 mins followed by MDP addition measured after 24 hrs by luminescence based assay. In kind it is cell-based.
The target of data set [4] is T2, Receptor-interacting serine/threonine-protein kinase 1 (Homo sapiens, UniProt Q13546).
T2 sequence (Q13546 whole entry): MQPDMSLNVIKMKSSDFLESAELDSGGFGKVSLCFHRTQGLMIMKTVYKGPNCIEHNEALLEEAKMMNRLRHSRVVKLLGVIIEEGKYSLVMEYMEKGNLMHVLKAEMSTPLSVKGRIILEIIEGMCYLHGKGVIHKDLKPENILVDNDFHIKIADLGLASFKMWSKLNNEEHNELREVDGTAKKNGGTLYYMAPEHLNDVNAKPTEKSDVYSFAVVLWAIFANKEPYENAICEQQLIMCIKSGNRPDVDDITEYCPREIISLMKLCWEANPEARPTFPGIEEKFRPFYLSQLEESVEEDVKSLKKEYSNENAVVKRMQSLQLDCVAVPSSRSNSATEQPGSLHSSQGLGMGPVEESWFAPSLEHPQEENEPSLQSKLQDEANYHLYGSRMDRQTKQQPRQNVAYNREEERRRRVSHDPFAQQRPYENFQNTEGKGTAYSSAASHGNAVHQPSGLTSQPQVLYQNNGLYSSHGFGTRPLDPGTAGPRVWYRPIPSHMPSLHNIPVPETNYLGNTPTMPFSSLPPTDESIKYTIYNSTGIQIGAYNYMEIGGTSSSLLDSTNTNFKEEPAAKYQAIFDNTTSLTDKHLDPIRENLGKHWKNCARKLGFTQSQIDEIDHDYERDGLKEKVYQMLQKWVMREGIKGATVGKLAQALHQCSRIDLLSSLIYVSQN
Put plainly: Inhibition of N-terminal polyHis-tagged human RIPK1 (1 to 321 residues) expressed in Sf9 cells using MBP as substrate preincubated for 15 mins followed by ATP addition measured after 90 mins by ADP-Glo assay.

Data set [5] deals with T3, Receptor-interacting serine/threonine-protein kinase 3 (Homo sapiens, UniProt Q9Y572). Briefly: Inhibition of N-terminal polyHis-tagged human RIPK3 (1 to 307 residues) expressed in Sf9 cells using MBP as substrate upto 10 uM preincubated for 15 mins followed by ATP addition measured after 90 mins by ADP-Glo assay. Particulars: time 105.0 min.
Target sequence in this assay (Q9Y572 whole entry, looked up, the tested form may be a part): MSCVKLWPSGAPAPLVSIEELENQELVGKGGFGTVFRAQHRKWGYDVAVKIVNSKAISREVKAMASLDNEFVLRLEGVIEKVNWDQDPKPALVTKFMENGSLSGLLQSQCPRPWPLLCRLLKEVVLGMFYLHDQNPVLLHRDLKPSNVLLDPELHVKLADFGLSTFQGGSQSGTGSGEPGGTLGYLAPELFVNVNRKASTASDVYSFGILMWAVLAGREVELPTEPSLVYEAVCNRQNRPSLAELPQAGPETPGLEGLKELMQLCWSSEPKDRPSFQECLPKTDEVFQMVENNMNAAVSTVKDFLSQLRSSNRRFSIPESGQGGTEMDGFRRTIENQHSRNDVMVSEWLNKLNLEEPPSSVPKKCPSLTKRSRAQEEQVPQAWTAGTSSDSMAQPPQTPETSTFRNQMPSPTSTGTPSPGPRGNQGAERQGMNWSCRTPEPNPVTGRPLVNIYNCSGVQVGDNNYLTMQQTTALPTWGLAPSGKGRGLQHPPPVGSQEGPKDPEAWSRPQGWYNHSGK
Data set [6] deals with T4, Receptor-interacting serine/threonine-protein kinase 4 (Homo sapiens, UniProt P57078).
T4 sequence (P57078 whole entry): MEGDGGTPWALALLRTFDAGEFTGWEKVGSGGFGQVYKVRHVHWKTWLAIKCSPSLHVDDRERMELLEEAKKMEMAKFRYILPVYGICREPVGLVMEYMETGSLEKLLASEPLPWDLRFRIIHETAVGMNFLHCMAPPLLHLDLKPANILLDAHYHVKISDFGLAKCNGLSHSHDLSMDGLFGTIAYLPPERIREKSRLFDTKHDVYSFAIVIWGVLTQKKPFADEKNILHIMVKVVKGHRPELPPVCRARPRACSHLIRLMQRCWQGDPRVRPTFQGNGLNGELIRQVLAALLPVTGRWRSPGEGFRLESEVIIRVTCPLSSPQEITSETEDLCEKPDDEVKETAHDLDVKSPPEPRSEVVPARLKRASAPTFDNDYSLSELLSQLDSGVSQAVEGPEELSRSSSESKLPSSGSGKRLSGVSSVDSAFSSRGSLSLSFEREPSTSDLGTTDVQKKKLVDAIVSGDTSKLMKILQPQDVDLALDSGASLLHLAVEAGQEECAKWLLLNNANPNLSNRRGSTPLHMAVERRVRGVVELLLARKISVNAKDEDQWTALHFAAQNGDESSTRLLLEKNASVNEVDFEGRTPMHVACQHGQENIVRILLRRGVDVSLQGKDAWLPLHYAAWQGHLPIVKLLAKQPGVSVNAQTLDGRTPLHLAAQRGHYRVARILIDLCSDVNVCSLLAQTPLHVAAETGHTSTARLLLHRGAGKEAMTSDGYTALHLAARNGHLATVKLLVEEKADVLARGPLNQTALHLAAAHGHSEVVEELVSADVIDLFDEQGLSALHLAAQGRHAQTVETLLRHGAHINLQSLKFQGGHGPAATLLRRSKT
Put plainly: Inhibition of N-terminal polyHis-tagged human RIPK4 (1 to 321 residues) expressed in Sf9 cells using MBP as substrate preincubated for 15 mins followed by ATP addition measured after 90 mins by ADP-Glo assay.

Data set [7] concerns the target Vascular endothelial growth factor receptor 2 (Homo sapiens) (UniProt P35968). Briefly: Inhibition of human KDR relative to control. Further details: concentration or dose not given beside the values. Particulars: concentration not given here.
Data set [8] can be described thus: Metabolic stability in mouse liver microsomes assessed as compound remaining at 10 uM incubated for 45 mins by ECHO-MS analysis. The class given is ADME, Microsome. Particulars: read-out: Stability.
A short description of data set [9]: Metabolic stability in human plasma assessed as compound remaining at 5 uM incubated for 120 mins by ECHO-MS analysis. In kind it is ADME, cell-free. Particulars: for Stability: 2 h, 5 µM; for remaining at 2 h, 5 µM: read-out: Stability.
Data set [10] deals with Epidermal growth factor receptor (Homo sapiens) (UniProt P00533). Briefly: Inhibition of human EGFR relative to control. Particulars: concentration not given here.
Epidermal growth factor receptor (Homo sapiens), sequence (P00533 whole entry): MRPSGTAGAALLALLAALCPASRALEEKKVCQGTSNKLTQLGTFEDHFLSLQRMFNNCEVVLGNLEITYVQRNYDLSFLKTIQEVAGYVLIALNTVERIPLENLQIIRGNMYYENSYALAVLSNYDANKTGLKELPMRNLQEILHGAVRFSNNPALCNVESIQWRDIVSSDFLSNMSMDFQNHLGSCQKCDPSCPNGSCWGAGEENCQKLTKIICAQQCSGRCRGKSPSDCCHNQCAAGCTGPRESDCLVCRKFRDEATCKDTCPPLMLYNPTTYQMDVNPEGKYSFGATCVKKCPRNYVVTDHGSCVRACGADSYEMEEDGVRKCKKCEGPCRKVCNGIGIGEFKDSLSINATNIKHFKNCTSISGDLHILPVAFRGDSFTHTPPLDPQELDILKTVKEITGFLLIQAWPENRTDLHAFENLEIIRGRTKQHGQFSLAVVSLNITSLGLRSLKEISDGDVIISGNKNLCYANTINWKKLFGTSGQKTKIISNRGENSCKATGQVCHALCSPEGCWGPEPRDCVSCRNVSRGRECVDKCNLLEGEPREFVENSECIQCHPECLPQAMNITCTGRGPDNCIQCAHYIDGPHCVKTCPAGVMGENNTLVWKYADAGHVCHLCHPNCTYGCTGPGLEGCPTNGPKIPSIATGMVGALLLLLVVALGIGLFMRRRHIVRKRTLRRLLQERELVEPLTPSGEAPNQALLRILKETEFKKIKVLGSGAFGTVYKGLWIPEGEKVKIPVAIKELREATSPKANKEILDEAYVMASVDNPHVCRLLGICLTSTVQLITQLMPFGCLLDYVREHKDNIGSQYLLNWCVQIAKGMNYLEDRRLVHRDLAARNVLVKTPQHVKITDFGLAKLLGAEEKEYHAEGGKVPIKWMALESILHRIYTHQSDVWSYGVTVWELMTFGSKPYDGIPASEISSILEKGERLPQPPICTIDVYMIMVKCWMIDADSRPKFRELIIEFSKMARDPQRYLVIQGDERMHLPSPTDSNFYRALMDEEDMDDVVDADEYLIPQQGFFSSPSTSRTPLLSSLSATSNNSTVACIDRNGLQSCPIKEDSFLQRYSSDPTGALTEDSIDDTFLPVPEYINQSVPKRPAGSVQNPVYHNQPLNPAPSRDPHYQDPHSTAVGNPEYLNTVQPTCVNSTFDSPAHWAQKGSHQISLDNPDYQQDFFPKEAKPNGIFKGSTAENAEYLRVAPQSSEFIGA
Data set [11] concerns the target T1, Receptor-interacting serine/threonine-protein kinase 2. Briefly: Inhibition of RIPK2-mediated NF-kappaB signalling in MDP-treated human THP-1 cells preincubated for 30 mins followed by MDP addition measured after 24 hrs by luminescence based assay. In kind it is cell-based.
Data set [12] is described as follows: Metabolic stability in human liver microsomes assessed as compound remaining at 10 uM incubated for 45 mins by ECHO-MS analysis. In kind it is ADME, Microsome. Particulars: for remaining at 0.75 h, 10 µM: liver microsomes, read-out: Stability. (Liver microsomes are vesicles of endoplasmic reticulum, rich in cytochrome P450 enzymes.)
Data set [13] addresses T1, Receptor-interacting serine/threonine-protein kinase 2. Put plainly: Inhibition of RIPK2-mediated NF-kappaB signalling in C14-TriLAN-Gly-treated human THP-1 cells preincubated for 30 mins followed by C14-TriLAN-Gly addition measured after 24 hrs by luminescence based assay. The class given is cell-based.
Data set [14] in a line: Metabolic stability in mouse plasma assessed as compound remaining at 5 uM incubated for 120 mins by ECHO-MS analysis. Particulars: for remaining at 2 h, 5 µM: read-out: Stability. In kind it is ADME, cell-free.
The target in data set [15] is T3, Receptor-interacting serine/threonine-protein kinase 3. Briefly: Inhibition of N-terminal polyHis-tagged human RIPK3 (1 to 307 residues) expressed in Sf9 cells using MBP as substrate preincubated for 15 mins followed by ATP addition measured after 90 mins by ADP-Glo assay.
Target sequence in this assay (Q9Y572 whole entry, the tested form may be a part): as the sequence (Q9Y572 whole entry, looked up, the tested form may be a part) above
The next data set concerns HT-29. Briefly: Cytotoxicity against human HT-29 cells assessed as cell viability at 10 uM incubated for 24 hrs by Cell Titer Glo assay. Particulars: ht-29, 24 h. The class given is toxicity, cell-based.

Activity calls are given as the source filed them. The calls are words filed in the database; no cut-off is given here.

Vascular endothelial growth factor receptor 2 (Homo sapiens), sequence (P35968 whole entry): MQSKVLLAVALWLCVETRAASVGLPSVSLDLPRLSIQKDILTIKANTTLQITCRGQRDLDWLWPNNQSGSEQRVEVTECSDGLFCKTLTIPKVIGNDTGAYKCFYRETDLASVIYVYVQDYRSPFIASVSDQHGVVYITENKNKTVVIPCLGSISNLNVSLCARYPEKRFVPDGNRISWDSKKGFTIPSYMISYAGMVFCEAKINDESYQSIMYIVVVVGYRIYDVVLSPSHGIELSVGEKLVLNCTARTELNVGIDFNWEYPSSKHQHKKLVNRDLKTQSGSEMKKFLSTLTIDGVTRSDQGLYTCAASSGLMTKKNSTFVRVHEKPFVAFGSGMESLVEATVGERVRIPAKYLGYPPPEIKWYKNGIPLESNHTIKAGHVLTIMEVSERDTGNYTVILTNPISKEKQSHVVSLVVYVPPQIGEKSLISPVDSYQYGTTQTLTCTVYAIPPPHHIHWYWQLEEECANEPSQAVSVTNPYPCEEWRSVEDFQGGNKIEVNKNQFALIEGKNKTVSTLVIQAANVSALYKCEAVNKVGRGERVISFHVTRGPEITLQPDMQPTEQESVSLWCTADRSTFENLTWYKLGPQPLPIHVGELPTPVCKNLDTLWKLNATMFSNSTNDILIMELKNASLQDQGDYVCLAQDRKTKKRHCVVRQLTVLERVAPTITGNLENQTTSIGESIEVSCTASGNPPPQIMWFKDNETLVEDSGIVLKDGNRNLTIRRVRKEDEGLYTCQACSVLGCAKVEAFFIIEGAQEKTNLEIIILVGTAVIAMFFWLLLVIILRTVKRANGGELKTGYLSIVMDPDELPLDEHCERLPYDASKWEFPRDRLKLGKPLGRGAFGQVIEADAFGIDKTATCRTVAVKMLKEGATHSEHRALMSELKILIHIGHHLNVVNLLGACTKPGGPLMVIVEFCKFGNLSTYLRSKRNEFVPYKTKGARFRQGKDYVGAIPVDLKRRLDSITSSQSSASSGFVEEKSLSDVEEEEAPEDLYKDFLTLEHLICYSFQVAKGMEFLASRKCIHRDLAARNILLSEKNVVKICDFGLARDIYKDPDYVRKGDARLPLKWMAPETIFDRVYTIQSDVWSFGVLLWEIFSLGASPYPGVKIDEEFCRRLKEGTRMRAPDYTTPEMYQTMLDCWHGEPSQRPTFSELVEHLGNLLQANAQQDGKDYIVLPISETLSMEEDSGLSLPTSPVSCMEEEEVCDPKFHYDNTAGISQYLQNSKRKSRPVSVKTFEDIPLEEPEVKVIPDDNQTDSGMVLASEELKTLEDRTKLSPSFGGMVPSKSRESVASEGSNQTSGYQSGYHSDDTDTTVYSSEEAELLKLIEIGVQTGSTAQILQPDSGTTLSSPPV

The term IC50 denotes the concentration that inhibits the measured activity by half. By inhibition is commonly meant the relative decrease from the control value, in per cent. For the compound `Clc1cc2ncnc(Nc3ccc4scnc4c3)c2cc1-c1cccs1`, the half-inhibitory concentration (IC50) entry is “Not Active” in data set [1]; 0.014 µM in data set [2]; “Not Active” in data set [3]; over 50 µM in data set [4]; over 50 µM in data set [6]. For the same compound, in data set [5], the inhibition result is “inactive”.
As for `Cn1cncc1-c1ccc2ncnc(Nc3ccc4scnc4c3)c2c1`, the 50% inhibitory concentration (IC50) in data set [2] is 0.004 µM; in data set [11], 0.115 µM; in data set [4], over 50 µM; in [6] it was over 50 µM; in data set [13], 0.119 µM. The inhibition in data set [7] stood at 66%; in data set [10], 68%. The remaining at 0.75 h, 10 µM in data set [8] worked out at 118%; in [12], 108%. In data set [9], the Stability was found to be 121%. Also, in data set [5], the inhibition entry was “inactive”. Further, in data set [14], the remaining at 2 h, 5 µM amounted to 79%.
For `Clc1cc2ncnc(Nc3ccc4scnc4c3)c2cc1-c1ccccc1`, the IC50 result was “Not Active” in data set [1], “Not Active” in data set [3], over 50 µM in [4] and over 50 µM in [6]. Also, the inhibition entry in [5] is “inactive”.
`COc1cccc(-c2ccc3ncnc(Nc4ccc5scnc5c4)c3c2)n1`: the 50% inhibitory concentration (IC50) entry in data set [1] is “Not Active”; in data set [2], 0.049 µM; in data set [3], “Not Active”; in data set [4], over 50 µM; in data set [6], over 50 µM. Besides, the inhibition result in [5] was “inactive”.
With `Cn1cccc1-c1cc2c(Nc3ccc4scnc4c3)ncnc2cc1Cl`, the IC50 entry in data set [1] is “Not Active”; in [2], 0.008 µM; in data set [3], “Not Active”; in data set [4] it was over 50 µM; in [6], over 50 µM. The inhibition result in [5] was “inactive”.
Regarding `Cc1nc(-c2cc3c(Nc4ccc5scnc5c4)ncnc3cc2Cl)sc1C`, the IC50 result in data set [1] is “Not Active”; in data set [3], “Not Active”; in data set [4], over 50 µM; in data set [6] it was over 50 µM. In [5], the inhibition result was “inactive”.
For `Cn1cncc1-c1cc2c(Nc3ccc4scnc4c3)ncnc2cc1Cl`, the 50% inhibitory concentration (IC50) was 0.007 µM in data set [2]; 0.054 µM in [11]; over 50 µM in data set [4]; over 50 µM in data set [6]; 0.146 µM in [13]. For the same compound, the remaining at 0.75 h, 10 µM in [8] was 105%; in [12], 94%. For the same compound, in data set [9], the Stability came to 122%. Besides, the inhibition entry in data set [5] was “inactive”. Besides, the remaining at 2 h, 5 µM in [14] stood at 102%.
In the case of `Cn1ccnc1-c1cc2c(Nc3ccc4scnc4c3)ncnc2cc1Cl`, the IC50 in data set [2] was 0.003 µM; in data set [11], 0.058 µM; in [4], over 50 µM; in data set [6], over 50 µM; in [13] it was 0.183 µM. In addition, the figures for the remaining at 0.75 h, 10 µM in data set [8] and in data set [12] were 115% and 105%, respectively. Further, the Stability is on record as 141% in data set [9] and 135% in data set [14] (2 h, 5 µM). For the same compound, the inhibition result in data set [5] was “inactive”.
With `COc1cccc(-c2cc3c(Nc4ccc5scnc5c4)ncnc3cc2Cl)n1`, the IC50 entry was “Not Active” in data set [1]; 3.9 µM in data set [2]; “Not Active” in data set [3]; over 50 µM in [4]; over 50 µM in data set [6]. In addition, the inhibition result in data set [5] is “inactive”.
Regarding `C1=C(c2cc3ncnc(Nc4ccc5scnc5c4)c3cc2-c2cccs2)COC1`, the IC50 was 0.005 µM in data set [2]; 0.464 µM in [15]; 0.036 µM in data set [11]; over 50 µM in [4]; over 50 µM in data set [6]; 0.051 µM in data set [13]. Besides, the remaining at 0.75 h, 10 µM is 94% in [8] and 108% in [12]. The remaining at 2 h, 5 µM in data set [9] came to 107%; in [14], 111%.
`Cc1csc(-c2cc3c(Nc4ccc5scnc5c4)ncnc3cc2Cl)n1`: the IC50 entry in data set [1] is “Not Active”; in [3], “Not Active”; in [4], over 50 µM; in data set [6], over 50 µM. In addition, the inhibition result in data set [5] is “inactive”.
On to `CC(C)[N+](C)(CCOC(=O)C1c2ccccc2Oc2ccccc21)C(C)C` [PROPANTHELINE], for which the remaining at 2 h, 5 µM amounted to 2% in [9] and 11% in [14].
`Cc1nc(-c2ccc3ncnc(Nc4ccc5scnc5c4)c3c2)sc1C`: the IC50 result in data set [1] is “Not Active”; in data set [2], 0.014 µM; in data set [3], “Not Active”; in data set [4], over 50 µM; in data set [6], over 50 µM. For the same compound, the inhibition entry in data set [5] is “inactive”.
With `Cn1cccc1-c1cc2c(Nc3ccc4scnc4c3)ncnc2cc1-c1cccc(CO)c1`, the IC50 was 0.005 µM in data set [2]; 0.141 µM in data set [15]; 0.095 µM in [11]; over 50 µM in data set [4]; over 50 µM in data set [6]; 0.119 µM in data set [13]. For the same compound, the inhibition in data set [7] came to 74%. In addition, the remaining at 0.75 h, 10 µM in [8] was 93%. The results for the remaining at 2 h, 5 µM in data set [9] and in data set [14] were 112% and 119%, respectively. Besides, the Stability in data set [12] (microsomes, 0.75 h, 10 µM) worked out at 124%. Also, the Activity entry in the data set on HT-29 is on record as “Toxic”.
`Cc1ccsc1-c1cc2c(Nc3ccc4scnc4c3)ncnc2cc1Cl`: the IC50 result was “Not Active” in [1]; 0.052 µM in data set [2]; “Not Active” in [3]; over 50 µM in data set [4]; over 50 µM in data set [6]. In [5], the inhibition entry is “inactive”.
